Test results as given in patent US7501397B2, “Helical peptidomimetics with enhanced activity” (The Brigham and Women's Hospital, Inc., priority 2004, dated 2009).
Read-outs that look alike come from different tables or passages of the source. Each block holds one compound with its values, some of them ahead of it. Non-standard residues stand in square brackets, D forms with d. Residues, ends and D or L forms follow the SMILES beside them. *: point of attachment. Boc = CC(C)(C)OC(=O)*; Aib = CC(C)(N)C(=O)O; Bn = c1ccc(C*)cc1

What was measured:
[1] = test system: Aβ production in Chinese hamster ovary (CHO) cells stably transfected with human APP; assay: cell-based assay of total Aβ production in CHO cells stably transfected with human APP
From the text: Based on the helical model for the APP transmembrane domain, short peptides were designed to adopt a similar conformation that block γ-secretase activity. Judicious replacement of selected residues of short APP-derived peptides with 2-aminoisobutyric acid (Aib), a known helix-inducing amino acid (19, 20), provided peptides that, in principle, mimic the γ-secretase cleavage site on one face of the helix, with Aib residues on the other face. Aib-containing peptides were identified that inhibit Aβ production in APP-transfected cells with 50 percent inhibitory concentrations (IC50's) as low as 2 μM. […] The crystal structure of this compound has been determined, and the peptide is fully helical (19). In certain embodiments the compounds of the invention have structures that are based on the partial APP sequence Val-Gly-Gly-Val-Val-Ile-Ala-Thr-Val-Ile-Val-Ile (SEQ ID NO:12; see FIG. 1). Basing the structures of the compounds of the invention on the partial APP sequence could enhance in vivo specificity of the compounds.
The top set of peptidomimetics (SEQ ID NOs: 1-5) was designed considering the cleavage leading to Aβ42, and the bottom set (SEQ ID NOs: 6-10) was designed considering the cleavage site leading to Aβ40. IC50 is the concentration of compound that reduced production of total Aβ by 50% in a cell-based assay using Chinese hamster ovary (CHO) cells stably transfected with human APP.
Starting from the reference D-decapeptide having SEQ ID NO:10 (IC50=90 nM), the enantiomers of the helical peptide L-series were tested for inhibitory activity. […] This greater than 40-fold loss of activity compared to the cell-free assay may be due to the need to enter into and/or cross cell membranes or some susceptibility to metabolic degradation.

[2] = target: T1, γ-secretase (Homo sapiens, UniProt P49768); settings: photoaffinity labeling; Kornilova et al. 2005; cited from earlier work
[3] = target: T1, γ-secretase; parameters: detergent-solubilized membranes from HeLa cells; endogenous in cells; host or cells: HeLa cells (detergent-solubilized membranes); settings: value from Ref. 22, cited from earlier work
[4] = target: T1, γ-secretase; assay: cell-free γ-secretase assay using detergent-solubilized membranes from HeLa cells and a recombinant APP-based substrate; type: biochemical; parameters: detergent-solubilized membranes from HeLa cells; endogenous in cells; host or cells: HeLa cells (detergent-solubilized membranes)
Procedure: Compounds were tested in a γ-secretase assay using detergent-solubilized membranes from HeLa cells and a recombinant APP-based substrate (Table 2, 18). […] Moreover, the γ-secretase inhibition appears to show dependence on length.

[5] = CHO cells stably transfected with human APP, total Aβ, read-out: IC50 (concentration that reduced production of total Aβ by 50%)
[6] = APP-transfected CHO cells, read-out: IC50, cell-based assay
[7] = 50% inhibition of Aβ40 production, at least three independent experiments, read-out: Cell-free Assay IC50

Compound: Boc-Val-Val-Ile-Aib-Thr(OBz)-Val-Aib-OMe [SEQ ID NO:7]
IC50 [1, 5]: 6 µM

Compound: Boc-Aib-Val-Val-Ile-Aib-Thr(OBz)-Val-Aib-OMe [SEQ ID NO:8]
IC50 [1, 5]: 6 µM

Compound: Boc-Val-Ile-Aib-Thr(OBz)-Val-Aib-OMe [SEQ ID NO:6]
IC50 [1, 5]: 12 µM

Compound: Boc-Aib-Ile-Ala-Thr(OBz)-Aib-Ile-Val-Aib-OMe [SEQ ID NO:3]
IC50 [1, 5]: 10 µM

Compound: Boc-D-Val-Gly-Aib-D-Val-D-Val-D-BPA-Aib-D-Thr(OBz)-D-Val-Aib-OMe [SEQ ID NO:11]
IC50 [1, 6]: 0.1 µM

Compound: Boc-Val-Gly-Aib-Val-Val-Ile-Aib-Thr(OBz)-Val-Aib-OMe [SEQ ID NO:10 D-peptide]
site of interaction with γ-secretase [2]: interacts with the initial substrate-binding site, but not the active site | IC50 ([3]; 50% inhibition of Aβ40 production, read-out: Cell-free Assay IC50): 0.09 µM

Compound: Boc-Val-Aib-Ile-Ala-Thr(OBz)-Aib-Ile-Val-Aib-OMe [SEQ ID NO:4]
IC50 [1, 5]: 2 µM

Compound: Ac-Val-Gly-Aib-Val-Val-Ile-Aib-Thr(OBz)-Val-Aib-Val-Val-Aib-NH2 (Ac-VG[Aib]VVI[Aib]XV[Aib]VV[Aib]-NH2; not fully specified (some residues); printed as Ac-Val-Gly-Aib-Val-Val-Ile-Aib-Thr(OBz)-Val-Aib-Val-Val-Aib-NH2) [SEQ ID NO:23 D-peptide]
site of interaction with γ-secretase [2]: not only interact with the initial substrate-binding site but also extend into the active site

IC50, in words [4]: subnanomolar | times more active than the other analogs of the D-series ([4]; D-series, cell-free assay): 100 times | IC50 ([4]; read-out: IC50, cell-free γ-secretase assay): 0.00014 µM
Compound: CC[C@@H](C)[C@@H](NC(=O)[C@H](NC(=O)[C@H](NC(=O)C(C)(C)NC(=O)CNC(=O)[C@H](NC(=O)OC(C)(C)C)C(C)C)C(C)C)C(C)C)C(=O)NC(C)(C)C(=O)N[C@@H](C(=O)N[C@@H](C(=O)NC(C)(C)C(=O)N[C@@H](C(=O)N[C@@H](C(=O)NC(C)(C)C(=O)OC)[C@H](C)CC)C(C)C)C(C)C)[C@H](C)OCc1ccccc1 [SEQ ID NO:18 D-peptide, Boc-Val-Gly-Aib-Val-Val-Ile-Aib-Thr(OBz)-Val-Aib-Val-Ile-Aib-OMe] (Boc-[dV]G[Aib][dV][dV][dI][Aib][dT](Bn)[dV][Aib][dV][dI][Aib]-OMe)
IC50 [1, 6]: 0.009 ± 0.001 µM | loss of activity in cell-based assay compared to the cell-free assay ([1]; cell-based vs cell-free IC50): greater than 40 fold

Compound: Boc-Val-Gly-Aib-Val-Val-Ile-Aib-Thr(OBz)-Val-Aib-OMe [SEQ ID NO:10 L-peptide]
IC50 [1, 5]: 3 µM | IC50 ([3]; reference decapeptide, read-out: IC50, cell-free γ-secretase assay): 30 µM

Compound: Boc-Gly-Val-Aib-Ile-Ala-Thr(OBz)-Aib-Ile-Val-Aib-OMe [SEQ ID NO:5]
IC50 [1, 5]: 5 µM

IC50 [4, 7]: 3.1 µM
Compound: CC[C@H](C)[C@H](NC(=O)[C@@H](NC(=O)[C@@H](NC(=O)C(C)(C)NC(=O)OC(C)(C)C)C(C)C)C(C)C)C(=O)NC(C)(C)C(=O)N[C@H](C(=O)N[C@H](C(=O)NC(C)(C)C(=O)N[C@H](C(=O)N[C@H](C(=O)NC(C)(C)C(=O)OC)[C@@H](C)CC)C(C)C)C(C)C)[C@@H](C)OCc1ccccc1 [SEQ ID NO:16 L-peptide, Boc-Aib-Val-Val-Ile-Aib-Thr(OBz)-Val-Aib-Val-Ile-Aib-OMe] (Boc-[Aib]VVI[Aib]T(Bn)V[Aib]VI[Aib]-OMe)

IC50 [4, 7]: 0.016 ± 0.007 µM
Compound: CC[C@@H](C)[C@@H](NC(=O)[C@H](NC(=O)[C@H](NC(=O)C(C)(C)NC(=O)CNC(=O)[C@H](NC(=O)C(C)(C)NC(=O)[C@@H](CC(C)C)NC(=O)OC(C)(C)C)C(C)C)C(C)C)C(C)C)C(=O)NC(C)(C)C(=O)N[C@@H](C(=O)N[C@@H](C(=O)NC(C)(C)C(=O)N[C@@H](C(=O)N[C@@H](C(=O)NC(C)(C)C(=O)OC)[C@H](C)CC)C(C)C)C(C)C)[C@H](C)OCc1ccccc1 [SEQ ID NO:20 D-peptide, Boc-Leu-Aib-Val-Gly-Aib-Val-Val-Ile-Aib-Thr(OBz)-Val-Aib-Val-Ile-Aib-OMe] (Boc-[dL][Aib][dV]G[Aib][dV][dV][dI][Aib][dT](Bn)[dV][Aib][dV][dI][Aib]-OMe)

Compound: Boc-Ile-Ala-Thr(OBz)-Aib-Ile-Val-Aib-OMe [SEQ ID NO:2]
IC50 [1, 5]: 15 µM

Compound: Boc-Ala-Thr(OBz)-Aib-Ile-Val-Aib-OMe [SEQ ID NO:1]
IC50 [1, 5]: 25 µM

Compound: Boc-Gly-Aib-Val-Val-Ile-Aib-Thr(OBz)-Val-Aib-OMe [SEQ ID NO:9]
IC50 [1, 5]: 3 µM
